Key:
seizures [1] = settings: 200 mg/day, twelve institutionalized adult patients, open label; cited from earlier work
[2] = tested on: epilepsy associated with KCNT1 mutation (EIMFS); test: Expanded access case study of highly purified CBD in a child with KCNT1 mutation associated EIMFS; format: in vivo, human
Method: The child was […] when they were enrolled in an expanded access compassionate use program for CBD. The patient was diagnosed with Epilepsy of Infancy with Migrating Focal Seizures (EIMFS).
This subject was treated with a highly purified extract of cannabidiol (CBD) obtained from a cannabis plant. Seizure frequency and severity was documented in seizure diaries at baseline (4-week pre-treatment period) and over the treatment period. At each visit quality of life changes, including mood, behaviour, and cognitive function were recorded in addition to global impression of change using a numerical scale.
The patient first presented with seizures on the first day of life. They experienced on average 14 seizures per day. The types of seizure that occurred were motor arrest; asymmetric tonic; clonic extremity movements, irregular breathing and cyanosis.
The patient had tried and failed seven different anti-epileptic drugs and at the time of treatment and continued on the ketogenic diet however their seizures remained refractory.
Pharmaceutical-grade plant-derived CBD oral solution was gradually titrated by 2 to 5 mg/kg increments up to a maximum dose of 25 mg/kg/day.
Laboratory testing for hematologic, liver, kidney function and concomitant AED levels was performed at baseline, and after every 4 weeks of CBD therapy.
The patient was treated for over three years and remains on treatment currently.

[3] = tested on: secondary generalized epilepsy; settings: eight adult patients; cited from earlier work
[4] = Solubility of drug substance in water; format: physicochemical
From the text: Sesame oil was selected as an excipient to solubilize the drug substance.

seizures [5] = settings: 200 mg/day, four adult patients; cited from earlier work
seizures [6] = settings: mice, after pro-convulsant drugs or an electric current; cited from earlier work
seizures [7] = settings: rabbit, in vivo; cited from earlier work
[8] = one patient, oral CBD up to 25 mg/kg/day

| SMILES | control of seizures (seizures [1]) | demeanour and developmental milestones (caregiver documented) ([2]; after 6 months of treatment) | reduction in overall seizure frequency ([2]; after 16 weeks of treatment, 25 mg/kg/day, one patient) [%] | side effects at maximum dose ([2]; after 16 weeks, 25 mg/kg/day) | side effect on titration ([2]; initial 12 week period, CBD titrated too quickly) | overall seizure frequency increase compared to baseline ([2]; initial 12 weeks of treatment, maximum dose of 25 mg/kg/day not reached, one patient) [%] | seizure severity ([2]; one patient) | reduction in Type C seizures (irregular breathing, cyanosis and clonic extremity movements) [2, 8] [%] | reduction in Type D seizures (most severe, asymmetric tonic seizures) [2, 8] [%] | number of patients with marked reduction of seizures [3] | solubility in water [4] | seizure freedom (seizures [5]) | prevention of seizures (seizures [6]) | effect on convulsions (seizures [7]) |
| --- | --- | --- | --- | --- | --- | --- | --- | --- | --- | --- | --- | --- | --- | --- |
| C=C(C)[C@@H]1CCC(C)=C[C@H]1c1c(O)cc(CCCCC)cc1O [CBD, Cannabidiol] | ineffective | more interactive and had attained new milestones including babbling, smiling, and fixing | 12 | without side effects | somnolence | 13 | clinically meaningful reduction in seizure severity | 93 | 48 | 4 | insoluble in water | two of the four patients became seizure free | able to prevent seizures | – |
| CCCCCc1cc(O)c2c(c1)OC(C)(C)[C@@H]1CCC(C)=C[C@@H]21 [THC, Tetrahydrocannabinol] | – | – | – | – | – | – | – | – | – | – | – | – | – | pro-convulsant |
